#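 Following 48 hours of exposure in 96-well plates, responses at five concentrations were used to interpolate endpoints linearly. At the TGI there is no net growth.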
# Experiments:
# Assay in all cases: NCI-60 cell line screen, 48 h
# SN12C renal = test system: SN12C renal
# KM20L2 colon = test system: KM20L2 colon
# SF-268 CNS = test system: SF-268 CNS
# K-562 leukemia = test system: K-562 leukemia
# DLD-1 colon = test system: DLD-1 colon
# CCRF-CEM leukemia = test system: CCRF-CEM leukemia
# LXFL 529 NSCLC = test system: LXFL 529 NSCLC
# UACC-257 melanoma = test system: UACC-257 melanoma
# OVCAR-4 ovarian = test system: OVCAR-4 ovarian
# EKVX NSCLC = test system: EKVX NSCLC
# RPMI-8226 leukemia = test system: RPMI-8226 leukemia
# RXF 393 renal = test system: RXF 393 renal
# OVCAR-5 ovarian = test system: OVCAR-5 ovarian
# HOP-18 NSCLC = test system: HOP-18 NSCLC
# SR leukemia = test system: SR leukemia
# SNB-19 CNS = test system: SNB-19 CNS
# HCT-116 colon = test system: HCT-116 colon
# U251 CNS = test system: U251 CNS
# NCI-H522 lung = test system: NCI-H522 lung
# SW-620 colon = test system: SW-620 colon
# UACC-62 melanoma = test system: UACC-62 melanoma
# HT29 colon = test system: HT29 colon
# SNB-78 CNS = test system: SNB-78 CNS
# M19-MEL melanoma = test system: M19-MEL melanoma
# OVCAR-3 ovarian = test system: OVCAR-3 ovarian
# TK-10 renal = test system: TK-10 renal
# M14 melanoma = test system: M14 melanoma
# IGROV1 ovarian = test system: IGROV1 ovarian
# XF 498 CNS = test system: XF 498 CNS
# SF-295 CNS = test system: SF-295 CNS
# A498 renal = test system: A498 renal
# MOLT-4 leukemia = test system: MOLT-4 leukemia
# HL-60(TB) leukemia = test system: HL-60(TB) leukemia
# SK-OV-3 ovarian = test system: SK-OV-3 ovarian
# SF-539 CNS = test system: SF-539 CNS
# DMS 114 small cell lung = test system: DMS 114 small cell lung
# KM12 colon = test system: KM12 colon
# HOP-92 NSCLC = test system: HOP-92 NSCLC
# SK-MEL-28 melanoma = test system: SK-MEL-28 melanoma
# NCI-H23 lung = test system: NCI-H23 lung
# SK-MEL-5 melanoma = test system: SK-MEL-5 melanoma
# A549 NSCLC = test system: A549 NSCLC
# COLO 205 colon = test system: COLO 205 colon
# SK-MEL-2 melanoma = test system: SK-MEL-2 melanoma
# 786-0 renal = test system: 786-0 renal
# ACHN renal = test system: ACHN renal
# NCI-H460 lung = test system: NCI-H460 lung
# OVCAR-8 ovarian = test system: OVCAR-8 ovarian
# UO-31 renal = test system: UO-31 renal
# HCC-2998 colon = test system: HCC-2998 colon
# MALME-3M melanoma = test system: MALME-3M melanoma
# HCT-15 colon = test system: HCT-15 colon
# HOP-62 NSCLC = test system: HOP-62 NSCLC
# DMS 273 small cell lung = test system: DMS 273 small cell lung
# NCI-H226 lung = test system: NCI-H226 lung
# SNB-75 CNS = test system: SNB-75 CNS
# LOX IMVI melanoma = test system: LOX IMVI melanoma
compound,measurement,setting,value
CC(C)C(=O)/C=C/c1ccc(Cl)c(Cl)c1,TGI,SN12C renal,29.2 µM
same,TGI,KM20L2 colon,37.8 µM
same,TGI,SF-268 CNS,40.4 µM
same,TGI,K-562 leukemia,72.2 µM
same,TGI,DLD-1 colon,34.2 µM
same,TGI,CCRF-CEM leukemia,81.7 µM
same,TGI,LXFL 529 NSCLC,40.2 µM
same,TGI,UACC-257 melanoma,45.1 µM
same,TGI,OVCAR-4 ovarian,> 100 µM
same,TGI,EKVX NSCLC,51.4 µM
same,TGI,RPMI-8226 leukemia,87 µM
same,TGI,RXF 393 renal,33.5 µM
same,TGI,OVCAR-5 ovarian,36.8 µM
same,TGI,HOP-18 NSCLC,23.5 µM
same,TGI,SR leukemia,56.8 µM
same,TGI,SNB-19 CNS,28.5 µM
same,TGI,HCT-116 colon,15.2 µM
same,TGI,U251 CNS,30.7 µM
same,TGI,NCI-H522 lung,35.1 µM
same,TGI,SW-620 colon,36.3 µM
same,TGI,UACC-62 melanoma,34.9 µM
same,TGI,HT29 colon,43.8 µM
same,TGI,SNB-78 CNS,> 100 µM
same,TGI,M19-MEL melanoma,32.3 µM
same,TGI,OVCAR-3 ovarian,27.6 µM
same,TGI,TK-10 renal,28.8 µM
same,TGI,M14 melanoma,31.9 µM
same,TGI,IGROV1 ovarian,40.4 µM
same,TGI,XF 498 CNS,25.1 µM
same,TGI,SF-295 CNS,29.4 µM
same,TGI,A498 renal,62.1 µM
same,TGI,MOLT-4 leukemia,> 100 µM
same,TGI,HL-60(TB) leukemia,47 µM
same,TGI,SK-OV-3 ovarian,70.3 µM
same,TGI,SF-539 CNS,26 µM
same,TGI,DMS 114 small cell lung,42.3 µM
same,TGI,KM12 colon,29 µM
same,TGI,HOP-92 NSCLC,34.7 µM
same,TGI,SK-MEL-28 melanoma,35.3 µM
same,TGI,NCI-H23 lung,36.5 µM
same,TGI,SK-MEL-5 melanoma,28.8 µM
same,TGI,A549 NSCLC,49.2 µM
same,TGI,COLO 205 colon,52.3 µM
same,TGI,SK-MEL-2 melanoma,31.9 µM
same,TGI,786-0 renal,27.6 µM
same,TGI,ACHN renal,32.7 µM
same,TGI,NCI-H460 lung,48 µM
same,TGI,OVCAR-8 ovarian,45.8 µM
same,TGI,UO-31 renal,27.2 µM
same,TGI,HCC-2998 colon,33.2 µM
CS(=O)(=O)OCCCOS(C)(=O)=O,TGI,SN12C renal,> 100 µM
same,TGI,KM20L2 colon,> 100 µM
same,TGI,SF-268 CNS,> 100 µM
same,TGI,K-562 leukemia,> 100 µM
same,TGI,MALME-3M melanoma,> 100 µM
same,TGI,HCT-15 colon,> 100 µM
same,TGI,DLD-1 colon,> 100 µM
same,TGI,CCRF-CEM leukemia,> 100 µM
same,TGI,LXFL 529 NSCLC,> 100 µM
same,TGI,UACC-257 melanoma,> 100 µM
same,TGI,OVCAR-4 ovarian,> 100 µM
same,TGI,EKVX NSCLC,> 100 µM
same,TGI,RPMI-8226 leukemia,> 100 µM
same,TGI,RXF 393 renal,> 100 µM
same,TGI,OVCAR-5 ovarian,> 100 µM
same,TGI,HOP-18 NSCLC,> 100 µM
same,TGI,SR leukemia,> 100 µM
same,TGI,HOP-62 NSCLC,> 100 µM
same,TGI,SNB-19 CNS,> 100 µM
same,TGI,HCT-116 colon,> 100 µM
same,TGI,U251 CNS,> 100 µM
same,TGI,NCI-H522 lung,> 100 µM
same,TGI,SW-620 colon,> 100 µM
same,TGI,UACC-62 melanoma,> 100 µM
same,TGI,HT29 colon,> 100 µM
same,TGI,SNB-78 CNS,> 100 µM
same,TGI,M19-MEL melanoma,> 100 µM
same,TGI,OVCAR-3 ovarian,> 100 µM
same,TGI,TK-10 renal,> 100 µM
same,TGI,DMS 273 small cell lung,> 100 µM
same,TGI,M14 melanoma,> 100 µM
same,TGI,IGROV1 ovarian,> 100 µM
same,TGI,XF 498 CNS,> 100 µM
same,TGI,NCI-H226 lung,> 100 µM
same,TGI,SF-295 CNS,> 100 µM
same,TGI,A498 renal,> 100 µM
same,TGI,MOLT-4 leukemia,> 100 µM
same,TGI,HL-60(TB) leukemia,> 100 µM
same,TGI,SK-OV-3 ovarian,> 100 µM
same,TGI,SF-539 CNS,> 100 µM
same,TGI,DMS 114 small cell lung,> 100 µM
same,TGI,KM12 colon,> 100 µM
same,TGI,HOP-92 NSCLC,> 100 µM
same,TGI,SK-MEL-28 melanoma,> 100 µM
same,TGI,NCI-H23 lung,> 100 µM
same,TGI,SK-MEL-5 melanoma,> 100 µM
same,TGI,SNB-75 CNS,> 100 µM
same,TGI,A549 NSCLC,> 100 µM
same,TGI,COLO 205 colon,> 100 µM
same,TGI,SK-MEL-2 melanoma,> 100 µM
same,TGI,LOX IMVI melanoma,> 100 µM
same,TGI,786-0 renal,> 100 µM
same,TGI,ACHN renal,> 100 µM
same,TGI,NCI-H460 lung,> 100 µM
same,TGI,OVCAR-8 ovarian,> 100 µM
same,TGI,UO-31 renal,> 100 µM
same,TGI,HCC-2998 colon,> 100 µM

# Reference: PubChem BioAssay (NCI)
